Target: T1, purified human Factor XIa (Homo sapiens, UniProt P03951)
T1 construct: purified human Factor XIa; purchased Sekisui Diagnostics
Assay: Factor XIa Assay (fluorogenic substrate Z-Gly-Pro-Arg-AFC)
Format: biochemical
Details: purified human Factor XIa 40 pM; Z-Gly-Pro-Arg-AFC 100 μM; 50 mM HEPES pH 7.4; read-out: hFXIa Ki (nM), Factor XIa inhibition
Protocol: The effectiveness of compound of the present invention as inhibitors of Coagulation Factor XIa can be determined using a relevant purified serine protease, and an appropriate synthetic substrate. The rate of hydrolysis of the chromogenic or fluorogenic substrate by the relevant serine protease was measured both in the absence and presence of compounds of the present invention. Assays were conducted at room temperature or at 37° C. […] A decrease in the rate of fluorescence change in the presence of inhibitor is indicative of enzyme inhibition. Such methods are known to one skilled in the art. The results of this assay are expressed as the inhibitory constant, Ki.
Factor XIa determinations were made in 50 mM HEPES buffer at pH 7.4 containing 150 mM NaCl, 5 mM CaCl2, and 0.1% PEG 8000 (polyethylene glycol; J T Baker or Fisher Scientific). Determinations were made using purified human Factor XIa at a final concentration of 40 pM (Sekisui Diagnostics) and he synthetic substrate, Z-Gly-Pro-Arg-AFC, TFA salt (Sigma #C0980) at a concentration of 100 μM.
Activity assays were performed by diluting a stock solution of substrate at least tenfold to a final concentration ≦0.1 Km into a solution containing enzyme or enzyme equilibrated with inhibitor. Times required to achieve equilibration between enzyme and inhibitor were determined in control experiments. Initial velocities of product formation in the absence (Vo) or presence of inhibitor (Vi) were measured. Assuming competitive inhibition, and that unity is negligible compared Km/[S], [I]/e, and [I]/e (where [S], [I], and e respectively represent the total concentrations, of substrate, inhibitor and enzyme), the equilibrium constant (Ki) for dissociation of the inhibitor from the enzyme can be obtained from the dependence of Vo/Vi on [I] shown in the following equation.

T1 sequence (P03951 388-625 limits assumed): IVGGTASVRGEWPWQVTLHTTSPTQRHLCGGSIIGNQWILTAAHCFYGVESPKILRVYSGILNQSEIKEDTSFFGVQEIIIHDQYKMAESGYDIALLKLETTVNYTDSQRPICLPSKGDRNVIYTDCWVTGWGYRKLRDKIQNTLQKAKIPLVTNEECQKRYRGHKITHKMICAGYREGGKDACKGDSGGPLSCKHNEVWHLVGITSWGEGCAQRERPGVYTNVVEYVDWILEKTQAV
T1 sequence (P03951 19-387 partner limits assumed): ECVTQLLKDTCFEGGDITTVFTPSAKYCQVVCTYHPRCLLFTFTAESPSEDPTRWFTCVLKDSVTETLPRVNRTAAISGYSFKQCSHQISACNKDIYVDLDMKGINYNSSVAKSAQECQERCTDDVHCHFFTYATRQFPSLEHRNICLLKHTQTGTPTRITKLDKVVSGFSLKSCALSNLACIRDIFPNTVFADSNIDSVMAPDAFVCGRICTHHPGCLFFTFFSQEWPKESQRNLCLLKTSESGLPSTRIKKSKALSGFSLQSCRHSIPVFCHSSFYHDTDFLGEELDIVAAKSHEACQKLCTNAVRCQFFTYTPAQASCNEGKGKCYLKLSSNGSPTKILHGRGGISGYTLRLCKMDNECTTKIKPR

Structure (SMILES) | Ki
NCC1CCC(C(=O)N2CCCC(c3ccccc3)C2C(=O)Nc2ccc(C(=O)O)cc2)CC1 (stereo not shown) [Example 1-49, 4-(1-(4-(aminomethyl)cyclohexanecarbonyl)-3-phenylpiperidine-2-carboxamido)benzoic acid] | 916 nM
NCC1CCC(C(=O)N2CCCC(c3ccccc3)C2C(=O)Nc2ccc(C(=O)O)cc2)CC1 (stereo not shown) [Example 1-50, 4-(1-(4-(aminomethyl)cyclohexanecarbonyl)-3-phenylpiperidine-2-carboxamido)benzoic acid] | 72.8 nM
O=C(O)c1ccc(NC(=O)[C@H]2[C@@H](c3ccccc3)CCCN2C(=O)/C=C/c2cc(Cl)ccc2-n2cnnn2)cc1 [Example 1-56, 4-((2R,3R)-1-((E)-3-(5-chloro-2-(1H-tetrazol-1-yl)phenyl)acryloyl)-3-phenylpiperidine-2-carboxamido)benzoic acid] | 4010 nM
O=C(Nc1ccc2[nH]ncc2c1)C1C(c2ccccc2)CCCN1C(=O)/C=C/c1cc(Cl)ccc1-n1cnnn1 (stereo not shown) [Example 1-59, (E)-1-(3-(5-chloro-2-(1H-tetrazol-1-yl)phenyl)acryloyl)-N-(1H-indazol-5-yl)-3-phenylpiperidine-2-carboxamide] | 13.9 nM
O=C(Nc1ccc2[nH]ncc2c1)C1C(c2ccccc2)CCCN1C(=O)/C=C/c1cc(Cl)ccc1-n1cnnn1 (stereo not shown) [Example 1-60, (E)-1-(3-(5-chloro-2-(1H-tetrazol-1-yl)phenyl)acryloyl)-N-(1H-indazol-5-yl)-3-phenylpiperidine-2-carboxamide] | 145 nM
O=C(Nc1ccc2cn[nH]c2c1)C1C(c2ccccc2)CCCN1C(=O)/C=C/c1cc(Cl)ccc1-n1cnnn1 (stereo not shown) [Example 1-61, (E)-1-(3-(5-chloro-2-(1H-tetrazol-1-yl)phenyl)acryloyl)-N-(1H-indazol-6-yl)-3-phenylpiperidine-2-carboxamide] | 91.6 nM
O=C1Cc2cc(-c3cnc([C@H]4[C@@H](c5ccccc5)CCCN4C(=O)/C=C/c4cc(Cl)ccc4-n4cnnn4)[nH]3)ccc2N1 [Example 1-62, 2-((2R,3R)-1-((E)-3-(5-chloro-2-(1H-tetrazol-1-yl)phenyl)acryloyl)-3-phenylpiperidin-2-yl)-5-(2-oxoindolin-5-yl)-1H-imidazol-3-ium 2,2,2-trifluoroacetate] | > 10000 nM
O=C1Cc2cc(-c3cnc([C@@H]4[C@H](c5ccccc5)CCCN4C(=O)/C=C/c4cc(Cl)ccc4-n4cnnn4)[nH]3)ccc2N1 [Example 1-63, 5-(2-((2S,3S)-1-((E)-3-(5-chloro-2-(1H-tetrazol-1-yl)phenyl)acryloyl)-3-phenylpiperidin-2-yl)-1H-imidazol-5-yl)indolin-2-one] | 207 nM
O=C(Nc1ccc2[nH]ncc2c1)[C@@H]1[C@H](c2ccccc2)CCCN1C(=O)/C=C/c1cc(Cl)ccc1-n1cnnn1 [Example 1-65, (2S,3S)-1-((E)-3-(5-chloro-2-(1H-tetrazol-1-yl)phenyl)acryloyl)-N-(1H-indazol-5-yl)-3-phenylpiperidine-2-carboxamide] | 31.4 nM
O=C(/C=C/c1cc(Cl)ccc1-n1cnnn1)N1CCC[C@@H](c2ccccc2)[C@H]1c1nc2cc(F)ccc2[nH]1 [Example 1-68, (E)-3-(5-chloro-2-(1H-tetrazol-1-yl)phenyl)-1-((2S,3S)-2-(5-fluoro-1H-benzo[d]imidazol-2-yl)-3-phenylpiperidin-1-yl)prop-2-en-1-one] | 428 nM
O=C(O)c1ccc(NC(=O)C2CCC(c3ccccc3)CN2C(=O)/C=C/c2cc(Cl)ccc2-n2cnnn2)cc1 (stereo not shown) [Example 1-71, (E)-4-(1-(3-(5-chloro-2-(1H-tetrazol-1-yl)phenyl)acryloyl)-5-phenylpiperidine-2-carboxamido)benzoic acid] | 2610 nM
O=C(NC12CCC(C(=O)O)(CC1)CC2)[C@@H]1[C@H](c2ccccc2)CCCN1C(=O)/C=C/c1cc(Cl)ccc1-n1cnnn1 [Example 1-72, 4-((2S,3S)-1-((E)-3-(5-chloro-2-(1H-tetrazol-1-yl)phenyl)acryloyl)-3-phenylpiperidine-2-carboxamido)bicyclo[2.2.2]octane-1-carboxylic acid] | 63.6 nM

More lines, now with the values ahead:

Ki | Structure (SMILES)
> 10000 nM | COC(=O)Nc1ccc(-c2c[nH]c(C3C(c4ccccc4)CCCN3C(=O)/C=C/c3cc(Cl)ccc3-n3cnnn3)n2)cc1 (stereo not shown) [Example 1-47, (E)-methyl (4-(2-(1-(3-(5-chloro-2-(1H-tetrazol-1-yl)phenyl)acryloyl)-3-phenylpiperidin-2-yl)-1H-imidazol-4-yl)phenyl)carbamate]
103 nM | COC(=O)Nc1ccc(-c2c[nH]c(C3C(c4ccccc4)CCCN3C(=O)/C=C/c3cc(Cl)ccc3-n3cnnn3)n2)c(N)c1 (stereo not shown) [Example 1-48, (E)-methyl (3-amino-4-(2-(1-(3-(5-chloro-2-(1H-tetrazol-1-yl)phenyl)acryloyl)-3-phenylpiperidin-2-yl)-1H-imidazol-4-yl)phenyl)carbamate]
> 10000 nM | CCCC(=O)Nc1cc(NC(=O)OC)ccc1-c1c[nH]c(C2C(c3ccccc3)CCCN2C(=O)/C=C/c2cc(Cl)ccc2-n2cnnn2)n1 (stereo not shown) [Example 1-51, (E)-methyl (3-butyramido-4-(2-(1-(3-(5-chloro-2-(1H-tetrazol-1-yl)phenyl)acryloyl)-3-phenylpiperidin-2-yl)-1H-imidazol-4-yl)phenyl)carbamate]
95.8 nM | COC(=O)Nc1ccc(-c2nc(C3C(c4ccccc4)CCCN3C(=O)/C=C/c3cc(Cl)ccc3-n3cnnn3)[nH]c2C)cc1 (stereo not shown) [Example 1-52, (E)-methyl (4-(2-(1-(3-(5-chloro-2-(1H-tetrazol-1-yl)phenyl)acryloyl)-3-phenylpiperidin-2-yl)-5-methyl-1H-imidazol-4-yl)phenyl)carbamate]
> 10000 nM | O=C(/C=C/c1cc(Cl)ccc1-n1cnnn1)N1CCCC(c2ccccc2)C1c1nc(-c2ccc3[nH]c(=O)oc3c2)c[nH]1 (stereo not shown) [Example 1-53, (E)-6-(2-(1-(3-(5-chloro-2-(1H-tetrazol-1-yl)phenyl)acryloyl)-3-phenylpiperidin-2-yl)-1H-imidazol-4-yl)benzo[d]oxazol-2(3H)-one]
31.5 nM | COC(=O)Nc1ccc(-c2nc([C@@H]3[C@H](c4ccccc4)CCCN3C(=O)/C=C/c3cc(Cl)ccc3-n3cnnn3)[nH]c2Cl)cc1 [Example 1-55, Methyl (4-(5-chloro-2-((2S,3S)-1-((E)-3-(5-chloro-2-(1H-tetrazol-1-yl)phenyl)acryloyl)-3-phenylpiperidin-2-yl)-1H-imidazol-4-yl)phenyl)carbamate]
56.9 nM | O=C(O)c1cccc(-c2c[nH]c(C3C(c4ccccc4)CCCN3C(=O)/C=C/c3cc(Cl)ccc3-n3cnnn3)n2)c1 (stereo not shown) [Example 1-58, (E)-3-(2-(1-(3-(5-chloro-2-(1H-tetrazol-1-yl)phenyl)acryloyl)-3-phenylpiperidin-2-yl)-1H-imidazol-4-yl)benzoic acid]
> 10000 nM | COC(=O)Nc1ccc(-c2nc([C@H]3[C@@H](c4ccccc4)CCCN3C(=O)/C=C/c3cc(Cl)ccc3-n3cnnn3)[nH]c2Cl)cc1 [Example 1-64, methyl (4-(5-chloro-2-((2R,3R)-1-((E)-3-(5-chloro-2-(1H-tetrazol-1-yl)phenyl)acryloyl)-3-phenylpiperidin-2-yl)-1H-imidazol-4-yl)phenyl)carbamate]
3910 nM | COC(=O)Nc1ccc(-c2c[nH]c([C@@H]3[C@H](CO[Si](C)(C)C(C)(C)C)CCCN3C(=O)/C=C/c3cc(Cl)ccc3-n3cnnn3)n2)cc1 [Example 1-66, methyl (4-(2-((2S,3R)-3-(((tert-butyldimethylsilyl)oxy)methyl)-1-((E)-3-(5-chloro-2-(1H-tetrazol-1-yl)phenyl)acryloyl)piperidin-2-yl)-1H-imidazol-4-yl)phenyl)carbamate]
2640 nM | COC(=O)Nc1ccc(-c2c[nH]c([C@@H]3[C@H](CO)CCCN3C(=O)/C=C/c3cc(Cl)ccc3-n3cnnn3)n2)cc1 [Example 1-67, methyl (4-(2-((2S,3R)-1-((E)-3-(5-chloro-2-(1H-tetrazol-1-yl)phenyl)acryloyl)-3-(hydroxymethyl)piperidin-2-yl)-1H-imidazol-4-yl)phenyl)carbamate]

From patent US20160229839A1, “Factor XIa Inhibitors” (Merck Sharp & Dohme Corp., priority 2013, published 2016)
